What was measured:
5HT1A receptor [1] = biological target: T1, 5HT1A receptor (Rattus norvegicus, UniProt P19327); assay: 5HT1A receptor binding activity in rat hippocampal membrane homogenate; settings: read-out: 1C50
T1 construct: rat hippocampal membrane homogenate; from tissue; host or cells: rat hippocampus, membrane homogenate
T1 sequence (P19327 1-422): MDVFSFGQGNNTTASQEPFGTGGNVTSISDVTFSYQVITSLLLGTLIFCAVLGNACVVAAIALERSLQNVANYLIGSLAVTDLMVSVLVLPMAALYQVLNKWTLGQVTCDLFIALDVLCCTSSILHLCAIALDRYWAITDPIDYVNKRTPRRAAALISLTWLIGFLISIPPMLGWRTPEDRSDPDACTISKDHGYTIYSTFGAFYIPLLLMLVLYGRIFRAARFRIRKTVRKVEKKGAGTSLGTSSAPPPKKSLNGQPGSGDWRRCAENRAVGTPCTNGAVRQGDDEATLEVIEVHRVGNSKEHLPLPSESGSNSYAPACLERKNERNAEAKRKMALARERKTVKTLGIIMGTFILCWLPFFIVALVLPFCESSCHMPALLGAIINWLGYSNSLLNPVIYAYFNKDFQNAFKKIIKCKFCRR
Experimental: The compounds of the invention were tested for 5HT1A receptor binding activity in rat hippocampal membrane homogenate by the method of B. S. Alexander and M. D. Wood, J Pharm Pharmacol, 1988, 40,888-891. The results for representative compounds of the invention are given below

α1 sites = assay: affinity for α1 sites; type: binding; settings: read-out: 1C50
5HT1A receptor [2] = biological target: T2, 5HT1A receptor (Cavia porcellus, UniProt A0A286Y074); assay: 5HT1A receptor antagonism: antagonism of 5-carboxamidotryptamine in the guinea-pig ileum in vitro; type: cell-based; settings: read-out: pA2 (converted)
T2 construct: guinea-pig ileum in vitro; from tissue; host or cells: guinea-pig ileum
T2 sequence (A0A286Y074 1-421): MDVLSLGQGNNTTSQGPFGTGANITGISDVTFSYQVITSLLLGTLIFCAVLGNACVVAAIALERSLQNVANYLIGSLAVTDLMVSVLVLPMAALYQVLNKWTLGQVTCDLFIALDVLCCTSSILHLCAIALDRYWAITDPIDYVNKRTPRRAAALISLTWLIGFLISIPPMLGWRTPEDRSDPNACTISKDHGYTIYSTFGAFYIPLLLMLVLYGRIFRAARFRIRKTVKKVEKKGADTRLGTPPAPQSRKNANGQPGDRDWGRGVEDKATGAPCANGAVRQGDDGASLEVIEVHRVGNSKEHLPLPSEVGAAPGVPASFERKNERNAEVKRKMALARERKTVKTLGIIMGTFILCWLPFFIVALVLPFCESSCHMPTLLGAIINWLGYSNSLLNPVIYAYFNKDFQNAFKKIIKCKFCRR
Experimental: The compounds are tested for 5HT1A receptor antagonism activity in a test involving the antagonism of 5-carboxamidotryptamine in the guinea-pig ileum in vitro (based upon the procedure of Fozard et al, Br J Pharmac, 1985, 86, 601P).

COc1ccccc1N1CCN(C/C(=C/C(=O)N2CCCCCC2)c2ccccc2)CC1 [Example 3 (E-isomer), 2,3,4,5,6,7-Hexahydro-1-[4-(4-(2-methoxyphenyl)piperazin-1-yl)-3-phenylbut-2-enoyl]-1H-azepine]
IC50 (5HT1A receptor [1]): 9 nM
IC50 (α1 sites): 2160 nM

COc1ccccc1N1CCN(CC(CC(=O)N2CCCCCC2)c2ccccc2)CC1 (centres unmarked) [Example 6, 2,3,4,5,6,7-Hexahydro-1-[4-(4-(2-methoxyphenyl)piperazin-1-yl)-3-phenylbutanoyl]-1H-azepine]
Kb (5HT1A receptor [2]): 0.794 nM
IC50 (5HT1A receptor [1]): 1.38 nM
IC50 (α1 sites): 682 nM

Source: patent US5369103A, “Piperazine derivatives” (John Wyeth & Brother, Limited, priority 1990, dated 1994)
